# Test results published in patent US20230026808A1, “COMPOUNDS, COMPOSITIONS, AND METHODS FOR TREATING ISCHEMIA-REPERFUSION INJURY AND/OR LUNG INJURY” (YALE UNIVERSITY, priority 2019, published 2023).
# “Also recorded” adds a separate entry of the source. Where two headings read alike, the source gives them in different places. Marks after values point to notes of the source that are not given here.
# Assays:
# [1] = test system: brain ischemia-reperfusion injury (IRI); experiment: Intraluminal middle cerebral artery (MCA) occlusion brain stroke mouse model; format: in vivo
# [2] = test system: p47^phox phosphorylation at Ser-208; experiment: Western analysis of p47^phox Ser-208 phosphorylation in fMLP-stimulated neutrophils; format: cell-based; conditions: fMLP (1 μM) stimulated mouse neutrophils
# Method: (§1) Mouse bone marrow neutrophils were isolated from long bones. After lysis of red blood cells (RBCs) with ACK buffer (155 mM NH4Cl, 10 mM KHCO3 and 127 μM EDTA), bone marrow cells were separated on a discontinuous Percoll gradient composed of 81%, 62%, and 45% Percoll. Neutrophils were collected at the interphase between 81% and 62% Percoll, washed in HBSS, and used for assays.
# MAP3K3 = experiment: Western analysis of MAP3K3 protein content induced by fMLP in neutrophils; format: cell-based; conditions: mouse neutrophils
# Method: as §1
# ERK phosphorylation = ERK phosphorylation in mouse neutrophils; format: cell-based
# Method: as §1
# p38 phosphorylation = p38 phosphorylation in mouse neutrophils; format: cell-based
# Method: as §1
# mouse neutrophils = experiment: ROS release assay in mouse neutrophils; format: cell-based; conditions: fMLP (1 μM)
# Method: as §1
# For measurement of extracellular ROS release, isolated neutrophils were placed in the reaction buffer (0.25% BSA in HBSS with Ca^2+ and Mg^2+, 10 mM Isoluminol, 100 u/ml HRP) and stimulated with fMLP or PMA. For measurement of total ROS production, neutrophils were incubated with the reaction buffer (0.25% BSA in HBSS with Ca^2+ and Mg^2+, 10 mM Luminol, 100 u/ml HRP), followed with stimulations. Chemiluminescence was read continuously in a plate reader (Perkin Elmer). For reconstituted ROS production system in COS-7 cells, PMA (2 μM) was used for stimulation.
# HCl-induced ALI = experiment: Acid aspiration (HCl)-induced acute lung injury mouse model; format: in vivo; conditions: for BAL cytokine contents / myeloid cell (neutrophil) infiltration in BAL and lungs: injured lungs; for phosphorylated AKT levels in lung extracts: lungs subjected to ALI, AKT S473; for effect on survival: mice lacking p47^phox in hematopoietic cells
# Method: Mice were anaesthetized by ketamine/Xylazine ([…] and 100 mg/kg) and were secured vertically from their incisors on a custom-made mount for orotracheal instillation. A 22G catheter (Jelco, Smiths Medical) was guided 1.5 cm below the vocal cords, and 2.5 μl/g of 0.05 M HCl was instilled. Four hours after the induction of injury, 100 μl of FITC-labeled albumin (10 mg/ml) was injected via retro-orbital vein. Mice were euthanized for sample collection 6 hours after the induction of injury. For the baseline permeability measurement, saline without HCl was administered the same way. The baseline permeability measurement was subtracted in the data presented.
# In survival experiments, mice received 2.5 μl/g of 0.1 M HCl orotracheally and the observation period was extended up to 30 h.
# Acute lung injury indices were quantified using HE-stained lung sections. The quantification of perivascular interstitial edema was done as the ratios of perivascular interstitial edema areas to vessel areas. More than 8 sections from the same lobes of the lungs were quantified for each mouse.
# Fifteen min after HCl ALI-induction, BALs were collected from the lungs. Mouse lungs were then mechanically dissociated and filtered through a 40 μm mesh to generate a single-cell suspension, and red blood cells were lysed. BAL cells, which were pelleted and resuspended, and whole lung cells were labeled for 30 minutes at 37° C. with 1 μM CM-H2-DCFDA (C6827, Invitrogen). The cells were then labeled for the surface markers (CD45; BD Bioscience 564279; Ly-6G; BD Bioscience 560602). Flow cytometry was performed on a BD LSRII.
# LPS-induced ALI = experiment: LPS-induced acute lung injury mouse model; format: in vivo
# [3] = test system: lung transplantation-induced injury; experiment: Pilot clinical study in paired single lung transplantation recipients; format: in vivo, human
# Text: These represent all of the patients who were eligible for single LT and consented for enrollment into the study between Mar. 1, 2018 and Aug. 31, 2018. […] The baseline characteristics, surgical information, medical records during their ICU stay, as well as ventilator parameters, arterial blood gas analysis, and chest X-ray results within 5 days after LT were collected. All of the five donors were enrolled in a voluntary organ donation program and died of accident or disease.
# The chest X-ray scores were obtained in the following manner: the heart field was regarded as the center, and the lung field was divided into four quadrants. Non-opacified regions, 0 points; opacified regions limited to 1/4 lung area, 1 point; limited to 2/4 lung area, 2 points; limited to 3/4 lung area, 3 points; in all lung fields, 4 points. Scores were independently collected by a clinician and a radiologist who were blinded for the treatment, and the average was used. If the difference between the two evaluators was greater than 1 point, discussion was conducted to reach a consensus. Hypoxemia index=PaO2/FiO2, measured by arterial blood gas analysis.
# In the pilot clinical study, the linear mixed model repeated measures analysis was performed to compare the hypoxemia and X-ray scores over time between two groups accounting for both within-subject correlation and correlation of paired recipients. Time by group interaction was included in the model to examine the difference in trajectory of outcomes between two groups. Linear contrast was used to compare difference at each post-transplant day, and overall mean difference between groups as well. The analysis was conducted with SAS version 9.4 (SAS Inc., Cary, N.C.). The significance was set as p<0.05, two-sided.
# [4] = Clinical pharmacokinetics of pazopanib; format: in vivo; conditions: human, IV 20 mg/subject, extrapolated
# [5] = cited from earlier work; for AUC / Cmax: human
# in vivo = conditions: rat, iv; for AUC(0-inf) / Cmax: 10 mg/kg/day
# [6] = drug given during ischemic phase
# [7] = given i.v. 0.5 hrs after reperfusion
# [8] = HCl model, therapeutic modality, intranasally post injury induction
# [9] = therapeutic modality, intranasally post injury induction
# [10] = IV administration 5 mg/subject (N=7)
# [11] = oral, reported with bioavailability
smiles,measurement,setting,value
"Cc1ccc(Nc2nccc(N(C)c3ccc4c(C)n(C)nc4c3)n2)cc1S(N)(=O)=O [pazopanib, 5-((4-((2,3-dimethyl-2H-indazol-6-yl)(methyl)amino)pyrimidin-2-yl)amino)-2-methylbenzenesulfonamide]",brain IRI,[1]; 60 μg retro-orbital intravenous injection 30 min after reperfusion,reduces brain IRI
same,brain IRI,[1]; 60 μg retro-orbital intravenous injection immediately after reperfusion,fails to reduce brain IRI
same,infarct size of the brain,[1]; [6],no improvement
same,neurological score,[1]; [6],no improvement
same,infarct size,[1]; [7],less infarct size
same,neurological deficit score,[1]; [7],improved neurological deficit score
same,p47^phox phosphorylation at Ser-208 in neutrophils,[2],inhibit p47^phox phosphorylation at Ser-208; also recorded: inhibits phosphorylation of Ser-208 of p47^phox
same,increase in MAP3K3 protein content induced by fMLP,MAP3K3,abrogated the increase in MAP3K3 protein content
same,ERK phosphorylation,ERK phosphorylation,did not affect
same,p38 phosphorylation,p38 phosphorylation,did not affect
same,ROS production,mouse neutrophils; WT mouse neutrophils,increases in ROS production
same,ROS production,"mouse neutrophils; WT mouse neutrophils, listed as Pazopanib",increases ROS release
same,ROS production,"mouse neutrophils; p47^phox-KI neutrophils, 20 nM pazopanib",failed to elevate ROS production
same,mortality,"HCl-induced ALI; HCl model, prophylactic, intranasally prior to injury",reduced
same,mortality,HCl-induced ALI; [8],significant reductions; also recorded: reduces mortality
same,perivascular interstitial edema,HCl-induced ALI; [8],significant reductions
same,BAL cytokine contents,HCl-induced ALI,did not affect
same,myeloid cell (neutrophil) infiltration in BAL and lungs,HCl-induced ALI,did not affect
same,BAL cytokine contents,HCl-induced ALI; listed as Pazopanib,no significant effects
same,myeloid cell (neutrophil) infiltration in BAL and lungs,HCl-induced ALI; listed as Pazopanib,no significant effects
same,phosphorylated AKT levels in lung extracts,HCl-induced ALI,increases in phosphorylated AKT levels
same,phosphorylated AKT levels in lung extracts,HCl-induced ALI; listed as Pazopanib,increases phosphorylation of AKT at S473
same,effect on survival,HCl-induced ALI,abrogated the effects of pazopanib
same,effect on survival,HCl-induced ALI; listed as Pazopanib,failed to increase survival
same,ROS in neutrophils in BALs and lungs,"HCl-induced ALI; pazopanib-treated mice subjected to HCl lung insult, DCFDA",elevated ROS
same,mortality,"LPS-induced ALI; prophylactic, orally prior to injury",reduced
same,mortality,LPS-induced ALI; [9],significant reductions; also recorded: reduces mortality
same,perivascular interstitial edema,LPS-induced ALI; [9],significant reductions
same,"X-ray opacity score, difference treatment vs control group","[3]; first day, pazopanib 200 mg oral before surgery",0.6
same,"X-ray opacity score, difference treatment vs control group","[3]; last day, pazopanib 200 mg oral before surgery",0.7
same,pulmonary edema,[3]; lung transplantation-induced injury,significantly reduced pulmonary edema
same,"X-ray score lower than control group, on average","[3]; overall mean, pazopanib 200 mg oral before surgery",0.5 point
same,"AUC(0-∞), assuming dose-linearity",[4],81.6^a μg·h/mL
same,"Cmax, assuming dose-linearity",[4],3.4^a μg/mL
same,AUC(0-inf),"[4]; in vivo, read-out: AUC(0-∞), assuming dose-linearity",81.6 µg·h/mL
same,Cmax,"[4]; in vivo, read-out: Cmax, assuming dose-linearity",3400 ng/mL
same,AUC,[5]; [10],20.4 µg·h/mL
same,Cmax,[5]; [10],848 ng/mL
same,AUC,[5]; [11],806 µg·h/mL
same,Cmax,[5]; [11],43900 ng/mL
same,half-life (t1/2),[5]; in man,27.5 h
same,AUC(0-inf),in vivo; female,276 µg·h/mL
same,Cmax,in vivo; female,47000 ng/mL
same,AUC(0-inf),in vivo; male,278 µg·h/mL
same,Cmax,in vivo; male,55000 ng/mL
same,NOAEL at 2 weeks,in vivo,10 mg/kg/day
same,NOAEL at 14 days,in vivo,10 mg/kg
